One test deals with GSPT1 (Homo sapiens (Human), UniProt P15170+Q96SW2). Put plainly: Western Assay for GSPT1 Degradation. The test is classed as cell-based. Particulars: wild-type Jurkat cells, 24 hrs. As to the method: (§1) Biological Example 4 Western Assay for IRAK4, IRAK1 and GSPT1 Degradation
(§2) DMSO was stamped into wells A12-H12 at 500 nL/well (NC, Negative Control, maximum signal). […] Following incubation, plates were centrifuged for 5 min at 1600 rpm. Media was removed and cell pellets were lysed in 50 μL lysis buffer (RIPA buffer (Fisher, PI89901), cOmplete Mini EDTA-free protease inhibitor (Sigma 11836170001), Protease Inhibitor Cocktail (Sigma, P2714), Phosphatase Inhibitor Cocktail 2 and 3 (Sigma, P5726 and P0044), Benzonase (Sigma, E1014)). Cells were lysed overnight at −20° C. Plates were centrifuged for 5 min at 1600 rpm and lysate supernatants were transferred to storage plates. Protein levels were determined by BCA Assay performed according to manufacturer's protocol (EMD Millipore, cat. no. 71285-3). Samples were combined with (4×) LDS Sample Buffer and (10×) Reducing Agent and H2O to equally load 10 ug protein per lane of a 26-well NuPAGE 4-12% Bis-Tris protein gel (1.0 mm, Thermo cat. no. NP0326). Samples were separated by running gels at constant 200 V in NuPAGE MES SDS Running Buffer. Following electrophoresis, proteins were transferred to nitrocellulose membranes using an iBlot Gel Transfer Device and iBlot Gel Transfer Stacks (Thermo cat. no. IB21001 and IB301001) and transfer method PO (20V 1 min, 23V 4 min, 25V 2 min). Membranes were blocked for 1 hr in 5% milk solution (TBS (0.2% Tween-20)).
(§3) Following blocking, membranes were incubated with primary antibody overnight at 4° C. with gentle shaking. The primary antibodies and dilutions used were as follows: IRAK4—abcam ab3200612, 1:500; IRAK1—Cell Signaling Technologies D51G7 #4504, 1:500; GSPT1—Cell Signaling Technologies #14980, 1:500). Blots were washed 3× in TBS (0.2% Tween-20), 5-10 min per wash. Following washes, blots were incubated in secondary HRP-conjugated antibody (Promega anti-Rabbit IgG (H+L) HRP, cat. no. W4011), 1:5000 in 5% milk solution (TBS (0.2% Tween-20)), for 1 hr at room temperature with gentle shaking. Blots were washed 3× in TBS (0.2% Tween-20), 5-10 min per wash. Blots were incubated with 1:1 mix of ECL reagents 1 & 2 (Amersham ECL Western Blotting Detection Reagent, cat. no. RPN2106) for 2-3 min at room temperature. Bands were visualized using a Protein Simple imager. Blots were then re-probed with a combination of anti-actin antibody (Sigma Monoclonal Mouse Anti-3-Actin (clone AC-15), cat. no. A5441) and secondary HRP-conjugated antibody (Promega anti-Mouse IgG (H+L) HRP, cat. no. W4021) and similar steps were taken for incubation, wash, detection and visualization steps as above. The data was analyzed using Alpha View software. The densitometric reading for each sample band was normalized to that of the corresponding actin band per lane.

Test [1] deals with T1, IRAK4 (Homo sapiens (Human), UniProt Q9NWZ3). Put plainly: IRAK4 Degradation HiBiT Assay. The settings on record: for Dmax: Jurkat.
Target sequence in this assay (Q9NWZ3 whole entry): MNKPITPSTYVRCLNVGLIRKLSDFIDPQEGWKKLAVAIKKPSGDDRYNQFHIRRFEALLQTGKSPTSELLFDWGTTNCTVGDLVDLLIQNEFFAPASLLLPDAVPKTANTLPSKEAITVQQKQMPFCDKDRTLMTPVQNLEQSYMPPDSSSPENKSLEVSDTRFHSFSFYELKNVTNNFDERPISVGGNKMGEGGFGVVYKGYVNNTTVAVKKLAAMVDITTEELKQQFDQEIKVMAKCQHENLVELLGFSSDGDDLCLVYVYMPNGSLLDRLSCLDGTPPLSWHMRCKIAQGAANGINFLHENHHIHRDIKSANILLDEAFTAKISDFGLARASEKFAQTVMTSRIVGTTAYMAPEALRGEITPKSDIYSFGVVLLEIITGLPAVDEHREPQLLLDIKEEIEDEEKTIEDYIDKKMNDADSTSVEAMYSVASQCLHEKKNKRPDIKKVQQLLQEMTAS
Protocol: Compound dilution series (11-point, 3.16-fold dilutions in DMSO, columns 1-11 and 12-22) at 500× the final required concentrations were prepared in Labcyte LDV 384-well plates (cat. no. LP-0200) using a Labcyte Echo 550 Liquid Handler. The 500× solutions ranged from 5 mM to 0.5 μM (final assay concentration range 10 μM to 0.1 nM). Using the Echo, the 500× solutions were stamped into white, 384-well assay plates (Corning, cat. no. 3570) at 60 nL/well. […] C-terminal HiBiT-tagged Jurkat cells (polyclonal cell line or clone 8D5) were plated at 1×10^6 cells/mL, 30 μL/well (3×10^4 cells/well) in complete RPMI (10% FBS, 1% L-glutamine). Cells were incubated for 4 hrs at 32° C./6% CO2.
Following incubation, 30 uL of complete Nano-Glo HiBiT Lytic Detection Reagent (Nano-Glo HiBiT Lytic Buffer with 1:50 Nano-Glo HiBiT Lytic Substrate and 1:100 LgBiT Protein; Promega cat. no. N3040) was added. Cells were further incubated for 10 min at room temperature (RT). Luminescence units (LU) were read on an EnVision plate reader (Perkin Elmer, 0.1 sec per well). Percent IRAK4 remaining per sample was calculated as follows:
Using Graphpad Prism, % IRAK4 remaining values were plotted as a function of compound concentration.
Test [2] concerns the target T1, IRAK4. The experiment in a line: IRAK4 Degradation HTRF Assay. The test is classed as cell-based. The settings on record: wild-type Jurkat cells, 4 hrs. As to the method: DMSO was stamped into wells A12-H12 at 400 nL/well (NC, Negative Control, maximum signal). […] Following incubation, plates were centrifuged for 5 min at 1600 rpm. […] Cells were incubated 30 min at room temperature with gentle shaking. 16 μL each lysate was transferred to 96-well detection plate included in Cisbio Total IRAK4 HTRF Assay Kit (cat. no. 63ADK108PEG). To the lysates was added 2 μL each of Total-IRAK4 d2 antibody and Total-IRAK4 Cryptate antibody (Cisbio Total IRAK4 HTRF Assay Kit). Plates were incubated overnight at RT. Fluorescence emission at 665 nm and 620 nm was read using an EnVision plate reader. The HTRF Ratio was calculated per sample using the following equation: HTRF Ratio=(665 nm signal/620 nm signal)×10,000
Target sequence in this assay (Q9NWZ3 whole entry): as above

Test [3] has as its target T1, IRAK4. The experiment in a line: IRAK4 Degradation Competition/Rescue Assay. The settings on record: degrader 1 μM; 1 hr pre-treatment with Nedd8i (5 μM) or MG-132 (20 or 50 μM); HiBiT Jurkat clone 8D5. The test is classed as cell-based. The source says: IRAK4 Degradation Competition/Rescue Assay
Target sequence in this assay (Q9NWZ3 whole entry): as above
The target of test [4] is T1, IRAK4. Put plainly: IRAK4 Biochemical HTRF Kinase Assay. In short, it runs like this:
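IC50 values derive from non-linear regression of sixteen concentrations in duplicate. Kinase reaction ran 90 min at ambient temperature after adding 5 μM STK-S1 substrate, 10 mM ATP and 10 mM MgCl2 (reaction-solution levels, pre-dilution to 10 μl); phospho-peptide detected by HTRF after 60 min.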
Target sequence in this assay (Q9NWZ3 whole entry, species assumed): as the sequence (Q9NWZ3 whole entry) above

Another test deals with IRAK1 (Homo sapiens (Human), UniProt P51617). Put plainly: Western Assay for IRAK1 Degradation. The settings on record: wild-type Jurkat cells, 4 hrs. Format: cell-based. As to the method:
as §1, §2, §3

The next test deals with Jurkat cells. Put plainly: Viability Assay (Celltiter-Glo). The test is classed as cell-based. Particulars: Homo sapiens, 4 hrs, read-out: Viability assessment EC50. The method, then: Viability Assay (Celltiter-Glo)
DMSO was stamped into empty wells at 60 nL/well (NC, Negative Control, maximum signal). […] Following incubation, the CellTiter-Glo assay was performed according to manufacturer's instructions (Promega CellTiter-Glo Luminescent Cell Viability Assay, cat. no. G7570).

Read-outs that look alike come from different tables or passages of the source.

Chain of IRAK1 (P51617 whole entry): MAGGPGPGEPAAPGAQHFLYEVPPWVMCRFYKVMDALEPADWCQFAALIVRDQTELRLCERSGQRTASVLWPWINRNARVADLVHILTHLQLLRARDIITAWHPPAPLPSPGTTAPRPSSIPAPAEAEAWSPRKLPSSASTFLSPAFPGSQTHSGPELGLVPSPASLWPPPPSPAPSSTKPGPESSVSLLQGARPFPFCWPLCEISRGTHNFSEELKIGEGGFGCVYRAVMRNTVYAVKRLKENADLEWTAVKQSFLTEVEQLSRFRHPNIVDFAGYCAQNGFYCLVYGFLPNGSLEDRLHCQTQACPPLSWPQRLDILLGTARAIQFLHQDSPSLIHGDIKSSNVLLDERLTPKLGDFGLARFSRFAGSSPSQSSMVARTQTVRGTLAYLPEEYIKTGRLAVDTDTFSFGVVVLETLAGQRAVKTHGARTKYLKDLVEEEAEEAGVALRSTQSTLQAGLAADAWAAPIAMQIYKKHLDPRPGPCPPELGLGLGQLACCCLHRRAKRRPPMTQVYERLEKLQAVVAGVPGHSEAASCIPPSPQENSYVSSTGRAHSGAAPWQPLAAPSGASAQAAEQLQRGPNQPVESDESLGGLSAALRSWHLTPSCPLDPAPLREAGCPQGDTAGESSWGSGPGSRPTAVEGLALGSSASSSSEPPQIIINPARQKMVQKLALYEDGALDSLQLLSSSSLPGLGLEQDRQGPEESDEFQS
Chain of GSPT1 (P15170 whole entry): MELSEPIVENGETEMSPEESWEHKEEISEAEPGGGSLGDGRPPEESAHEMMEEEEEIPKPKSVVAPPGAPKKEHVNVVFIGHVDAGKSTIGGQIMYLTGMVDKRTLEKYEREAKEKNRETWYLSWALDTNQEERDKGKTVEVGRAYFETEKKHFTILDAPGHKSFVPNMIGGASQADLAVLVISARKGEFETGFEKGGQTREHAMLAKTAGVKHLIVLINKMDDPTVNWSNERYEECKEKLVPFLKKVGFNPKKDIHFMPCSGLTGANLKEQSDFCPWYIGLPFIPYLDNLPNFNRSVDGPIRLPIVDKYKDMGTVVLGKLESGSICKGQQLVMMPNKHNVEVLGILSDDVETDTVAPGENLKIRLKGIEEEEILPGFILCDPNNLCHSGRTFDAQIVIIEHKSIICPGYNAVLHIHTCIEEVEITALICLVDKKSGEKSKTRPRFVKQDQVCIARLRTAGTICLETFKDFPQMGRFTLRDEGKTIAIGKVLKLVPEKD
Chain of GSPT1 (Q96SW2 whole entry): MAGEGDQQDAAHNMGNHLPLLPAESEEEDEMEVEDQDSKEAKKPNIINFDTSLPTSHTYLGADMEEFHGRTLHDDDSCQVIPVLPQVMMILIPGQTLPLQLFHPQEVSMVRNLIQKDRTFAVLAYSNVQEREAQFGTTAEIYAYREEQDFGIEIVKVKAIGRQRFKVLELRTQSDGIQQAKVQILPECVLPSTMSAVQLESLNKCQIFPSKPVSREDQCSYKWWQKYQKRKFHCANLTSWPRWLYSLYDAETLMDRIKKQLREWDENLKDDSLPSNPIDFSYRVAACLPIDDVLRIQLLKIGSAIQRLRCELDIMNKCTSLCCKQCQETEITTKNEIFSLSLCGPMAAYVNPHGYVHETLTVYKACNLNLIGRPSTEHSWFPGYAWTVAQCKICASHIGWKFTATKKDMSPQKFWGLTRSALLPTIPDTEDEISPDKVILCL
Chain of GSPT1 (Q16531 whole entry partner): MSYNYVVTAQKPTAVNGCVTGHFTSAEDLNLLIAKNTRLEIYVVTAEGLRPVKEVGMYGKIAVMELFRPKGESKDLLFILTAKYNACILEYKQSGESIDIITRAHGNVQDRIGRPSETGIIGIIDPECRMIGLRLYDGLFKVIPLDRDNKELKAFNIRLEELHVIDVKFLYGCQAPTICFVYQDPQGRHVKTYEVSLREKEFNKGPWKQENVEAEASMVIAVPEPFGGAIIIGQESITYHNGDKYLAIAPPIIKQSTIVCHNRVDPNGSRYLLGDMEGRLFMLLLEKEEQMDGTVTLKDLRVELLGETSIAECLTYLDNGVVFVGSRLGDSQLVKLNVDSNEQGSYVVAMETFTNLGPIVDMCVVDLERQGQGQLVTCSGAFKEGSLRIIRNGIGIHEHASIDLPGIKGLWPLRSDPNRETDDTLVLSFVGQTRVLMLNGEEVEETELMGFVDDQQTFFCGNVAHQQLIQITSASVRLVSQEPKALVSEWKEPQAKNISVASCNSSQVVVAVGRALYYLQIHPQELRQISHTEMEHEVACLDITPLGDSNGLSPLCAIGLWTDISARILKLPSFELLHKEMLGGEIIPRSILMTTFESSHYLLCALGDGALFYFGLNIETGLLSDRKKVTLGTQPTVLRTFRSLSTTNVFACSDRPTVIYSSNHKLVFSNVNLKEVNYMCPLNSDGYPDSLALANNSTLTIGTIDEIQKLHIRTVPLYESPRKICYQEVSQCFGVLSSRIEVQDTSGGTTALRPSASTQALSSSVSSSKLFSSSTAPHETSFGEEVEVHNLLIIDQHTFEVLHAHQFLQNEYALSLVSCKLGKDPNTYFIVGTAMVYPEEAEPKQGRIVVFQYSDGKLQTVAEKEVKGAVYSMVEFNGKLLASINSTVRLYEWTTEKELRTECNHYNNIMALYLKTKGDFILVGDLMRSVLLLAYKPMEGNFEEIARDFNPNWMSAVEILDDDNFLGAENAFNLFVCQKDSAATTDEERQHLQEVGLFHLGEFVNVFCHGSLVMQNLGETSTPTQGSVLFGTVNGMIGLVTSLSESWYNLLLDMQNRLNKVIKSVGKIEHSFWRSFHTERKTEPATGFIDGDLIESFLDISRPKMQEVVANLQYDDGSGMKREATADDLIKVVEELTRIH

For the compound `Cc1ncsc1-c1ccc(CNC(=O)[C@@H]2C[C@@H](O)CN2C(=O)[C@@H](NC(=O)C2(F)CC2)C(C)(C)C)c(OCCOCCC(=O)N2CCN(c3nnc(-c4cnc(-c5ccc6cc(C#N)cnn56)cc4NC(C)C)s3)CC2)c1` [Example 47, (2S,4R)—N-(2-(2-(3-(4-(5-(6-(3-cyanopyrrolo[1,2-b]pyridazin-7-yl)-4-(isopropylamino)pyridin-3-yl)-1,3,4-thiadiazol-2-yl)piperazin-1-yl)-3-oxopropoxy)ethoxy)-4-(4-methylthiazol-5-yl)benzyl)-1-((S)-2-(1-fluorocyclopropane-1-carboxamido)-3,3-dimethylbutanoyl)-4-hydroxypyrrolidine-2-carboxamide], the DC50 at GSPT1 is > 10000 nM; at IRAK4 [1] (read-out: Cellular IRAK4 HiBiT: DC50, Table 4, HiBiT-tagged Jurkat cells, 4 hrs) it was 144 nM; at IRAK4 [1] (read-out: Cellular IRAK4 HiBiT: DC50, Table 5, multiple runs, HiBiT-tagged Jurkat cells, 4 hrs) it was 144 nM; on IRAK4 [1] (read-out: IRAK4 HiBit DC50, C-terminal HiBiT-tagged Jurkat cells, 4 hrs, Tables 2-3), 144 nM; on IRAK4 [2], 140 nM; at IRAK1, > 10000 nM. The Dmax is 118% on IRAK4 [1] (read-out: Cellular IRAK4 HiBiT: Dmax, Table 4, HiBiT-tagged Jurkat cells, 4 hrs); 118% on IRAK4 [1] (read-out: Cellular IRAK4 HiBiT: Dmax, Table 5, multiple runs, HiBiT-tagged Jurkat cells, 4 hrs); 118% on IRAK4 [1] (read-out: IRAK4 HiBit Dmax, C-terminal HiBiT-tagged Jurkat cells, 4 hrs, Tables 2-3); > 100% at IRAK4 [2]. For the same compound, the “IRAK4 degradation by HTRF, in words” value at IRAK4 [2] is recorded as “maximum IRAK4 degradation among the tested compounds”. Moreover, on IRAK4 [3], the “Rescue by proteasome or Nedd8 inhibition” value is listed as “YES”. Also, the IC50 was determined as 7.3 nM on IRAK4 [4] (Table 3, VHL-targeting compounds, read-out: IRAK4 biochemical IC50); 7.3 nM on IRAK4 [4] (Table 4, read-out: IRAK4 HTRF biochemical: IC50); 5.8 nM at IRAK4 [4] (Table 5, multiple runs, read-out: IRAK4 HTRF biochemical: IC50). For the same compound, the EC50 with Jurkat cells was > 10000 nM.

These data come from patent US12528814B2, “Bifunctional degraders of interleukin-1 receptor-associated kinases and therapeutic use thereof” (NURIX THERAPEUTICS, INC., priority 2020, dated 2026).
